According to patent US9850218B2, “Thiazole compounds, compositions and methods for treatment of degenerative diseases and disorders” (MUSC FOUNDATION FOR RESEARCH DEVELOPMENT, priority 2013, dated 2017):

Legend:
[1] = test system: 661W or C6 cells; assay: MTT assay: protection against calcium-ionophore A23187; format: cell-based; conditions: for viability at 0.1 µM: 100 nM compound; for viability at 1 µM: 1 μM compound; for viability at 0.0008 µM: 800 pM compound; for viability at 0.5 µM: 500 nM compound
Experimental: The compound 3-(4,5-Dimethylthiazol-2-yl)-2,5-diphenyltetrazolium bromide (MTT) is a tetrazolium ion that is reduced to a blue formazan dye via several families of NAD(P)H-dependent oxidoreductases. Formation of the formazan dye from MTT or other related tetrazolium dyes are commonly used as a viability assay even though, in fact, the assay is a metabolic capacity assay.
In this assay, 661W or C6 cells were maintained in DMEM supplemented with 10% FBS. 100 μl, of 70,000 cells/mL cells were seeded into each well of 96 well plates using DMEM supplemented with 5% FBS. Cells were then allowed to grow to confluency for 48 hours. The compounds of the invention were added in 2 μL media and calcium-ionophore A23187 was then added in 1 μL for a final concentration of 1 μM and after 24 h, 20 uL of 2 μg/mL MTT were added to each well and the cells were incubated for another 4 h after which 100 μL of 1% SDS in 0.01 M aqueous HCl were added to each well and the plates were incubated overnight. Absorbance was measured at 640 and 570 nM (background correction). The 1 μM ionophore A23187 caused about 50% loss in MTT signal at 24 h. Protection was calculated as the increase in absorbance of treatment groups normalized to the vehicle control.

[2] = test system: 661W or C6 cells; assay: XF FCCP-uncoupled oxygen consumption rate assay (IBMX treatment); format: cell-based; conditions: for activity at 1 µM: 1 uM compound
Experimental: The XF FCCP-uncoupled oxygen consumption rate assay assesses mitochondrial capacity by measuring cellular respiration. It was shown that the maximum FCCP-uncoupled oxygen consumption rate (OCR) was a good estimate of maximal mitochondrial capacity (Beeson 2010) and that IBMX treatment of 661W or C6 cells for 24 h caused a loss in maximal uncoupled OCR (Perron 2013). Thus, cells were pretreated with the exemplified compounds for 1 h, added 600 μM IBMX and then measured the uncoupled rate after 24 h. The OCR measurements were performed using a Seahorse Bioscience XF instrument (Seahorse Bioscience, Billerica, Md.), as previously published (Perron 2013). O2 leakage through the plastic sides and bottom of the plate was accounted for using the AKOS algorithm in the XF software package. Cells were plated on 96- or 24-well custom plates designed for use in the XF and grown to confluency in DMEM+5% FBS (48 h). The medium was then replaced with DMEM+1% FBS for 24 h, along with any treatments.

[3] = 1 μM A23187, 24 h, read-out: MTT Protection (%, concentration)
[4] = 1 h pretreatment, 600 μM IBMX, 24 h, read-out: XF FCCP OCR (% Ctrl, concentration)

Compound	viability at 0.1 µM [1, 3] [%]	activity at 1 µM [2, 4] [%]	further results
COCCN(C)C(=O)c1sc(-c2ccccc2)nc1-c1ccccc1 [Example 6, N-(2-methoxyethyl)-N-methyl-2,4-diphenylthiazole-5-carboxamide]	78.4	81	
CCOC(=O)c1sc(-c2ccccn2)nc1-c1ccccc1 [Example 7, Ethyl 4-phenyl-2-(pyridin-2-yl)thiazole-5-carboxylate]		75	viability at 1 µM [1, 3]: 88%
CCOC(=O)c1sc(-c2ccccc2)nc1-c1ccccc1 [Example 1, Ethyl 2,4-diphenylthiazole-5-carboxylate]	48	71	
O=C(Nc1ccccc1)c1sc(-c2ccccc2)nc1-c1ccccc1 [Example 3, N,2,4-Triphenylthiazole-5-carboxamide]		72	viability at 1 µM [1, 3]: 47%
O=C(Nc1ccccc1Nc1ccccc1)c1sc(-c2ccccn2)nc1-c1ccccc1 [Example 12, 4-Phenyl-N-(2-(phenylamino)phenyl)-2-(pyridin-2-yl)thiazole-5-carboxamide]		71	viability at 0.0008 µM [1, 3]: 57.2%
O=C(Nc1ccc(F)cc1)c1sc(-c2ccccc2)nc1-c1ccccc1 [Example 4, N-(4-fluorophenyl)-2,4-diphenylthiazole-5-carboxamide]	64.1	83	
CC(C)Cn1c(=O)n(C)c(=O)c2[nH]cnc21 [IBMX, reference compound]			decrease in the uncoupled rate ([2]; IBMX treatment alone (600 μM, 24 h)): ~50%
CCOC(=O)c1sc(-c2ccncc2)nc1-c1ccccc1 [Example 10, Ethyl 4-phenyl-2-(pyridin-4-yl)thiazole-5-carboxylate]		70	viability at 0.5 µM [1, 3]: 88%
O=C(O)c1sc(-c2ccccc2)nc1-c1ccccc1 [Example 2, 2,4-Diphenylthiazole-5-carboxylic acid]	40	77	
COc1ccc(NC(=O)c2sc(-c3ccccc3)nc2-c2ccccc2)cc1 [Example 8, N-(4-methoxyphenyl)-2,4-diphenylthiazole-5-carboxamide]		73	viability at 0.0008 µM [1, 3]: 67.3%
CNc1ccc2oc(C[C@H]3O[C@@]4(CC[C@H]3C)O[C@H]([C@H](C)C(=O)c3ccc[nH]3)[C@H](C)C[C@H]4C)nc2c1C(=O)O [Example A23187, reference compound]			loss in MTT signal ([1]; 1 μM ionophore A23187 alone, at 24 h): about 50%
CCOC(=O)c1sc(-c2ccc(OC)cc2)nc1-c1ccccc1 [Example 5, Ethyl 2-(4-methoxyphenyl)-4-phenylthiazole-5-carboxylate]	69	82	
CCOC(=O)c1sc(-c2ccccc2)nc1-c1ccccn1 [Example 9, Ethyl 2-phenyl-4-(pyridin-2-yl)thiazole-5-carboxylate]			viability at 10 µM ([1]; 10 μM compound, 1 μM A23187, 24 h, read-out: MTT Protection (%, concentration)): 98%; activity at 10 µM ([2]; 10 uM compound, 1 h pretreatment, 600 μM IBMX, 24 h, read-out: XF FCCP OCR (% Ctrl, concentration)): 71%
O=C(O)c1sc(-c2ccccn2)nc1-c1ccccc1 [Example 11, 4-Phenyl-2-(pyridin-2-yl)thiazole-5-carboxylic acid]		76	viability at 0.5 µM [1, 3]: 71.7%
